Data as given in PubChem BioAssay (NCI).
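Growth conditions: 96-well plates. Treatment: test compound, 48 hours, 5 concentrations. Analysis: linear interpolation between bracketing concentrations; unreached endpoints set to highest concentration. Here, GI50 denotes the concentration required for 50% inhibition of growth. At the TGI there is no net growth.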

Experiments:
Assay in all cases: NCI tumour cell line growth inhibition, 48 h
[1] = tested on: CCRF-CEM leukemia
[2] = tested on: OVCAR-8 ovarian
[3] = tested on: 786-0 renal
[4] = tested on: UACC-257 melanoma
[5] = tested on: UO-31 renal
[6] = tested on: U251 CNS
[7] = tested on: RXF 393 renal
[8] = tested on: BT-549 breast
[9] = tested on: NCI-H23 lung
[10] = tested on: UACC-62 melanoma
[11] = tested on: A498 renal
[12] = tested on: SNB-19 CNS
[13] = tested on: ACHN renal
[14] = tested on: SK-MEL-2 melanoma
[15] = tested on: SR leukemia
[16] = tested on: SN12C renal
[17] = tested on: OVCAR-5 ovarian
[18] = tested on: SF-295 CNS
[19] = tested on: M14 melanoma
[20] = tested on: SK-OV-3 ovarian
[21] = tested on: HCC-2998 colon
[22] = tested on: A549 NSCLC
[23] = tested on: SNB-75 CNS
[24] = tested on: MOLT-4 leukemia
[25] = tested on: KM12 colon
[26] = tested on: RPMI-8226 leukemia
[27] = tested on: MDA-MB-231 breast
[28] = tested on: HCT-15 colon
[29] = tested on: EKVX NSCLC
[30] = tested on: SK-MEL-28 melanoma
[31] = tested on: PC-3 prostate
[32] = tested on: OVCAR-4 ovarian
[33] = tested on: HOP-92 NSCLC
[34] = tested on: SK-MEL-5 melanoma
[35] = tested on: NCI-H226 lung
[36] = tested on: NCI-H522 lung
[37] = tested on: HCT-116 colon
[38] = tested on: MCF7 breast
[39] = tested on: TK-10 renal
[40] = tested on: HS 578T breast
[41] = tested on: SF-539 CNS
[42] = tested on: NCI-H460 lung
[43] = tested on: HL-60(TB) leukemia
[44] = tested on: K-562 leukemia
[45] = tested on: HT29 colon
[46] = tested on: DU-145 prostate
[47] = tested on: OVCAR-3 ovarian
[48] = tested on: NCI/ADR-RES ovarian
[49] = tested on: SW-620 colon
[50] = tested on: LOX IMVI melanoma
[51] = tested on: SF-268 CNS
[52] = tested on: HOP-62 NSCLC
[53] = tested on: IGROV1 ovarian
[54] = tested on: COLO 205 colon
[55] = tested on: MDA-MB-435
[56] = tested on: CAKI-1 renal
[57] = tested on: MALME-3M melanoma

COc1cc2cc(c1Cl)N(C)C(=O)C[C@H](OC(=O)[C@H](C)N(C)C(=O)CCS)C[C@]1(C)O[C@H]1[C@H](C)[C@@H]1C[C@@](O)(NC(=O)O1)[C@H](OC)/C=C/C=C(\C)C2
GI50 [1]: < 5 nM | TGI [1]: > 50000 nM | GI50 [2]: 8.3 nM | TGI [2]: > 50000 nM | GI50 [3]: 9.06 nM | TGI [3]: > 24700 nM | GI50 [4]: > 50000 nM | TGI [4]: > 50000 nM | GI50 [5]: 28.2 nM | TGI [5]: > 50000 nM | GI50 [6]: < 5 nM | TGI [6]: > 32900 nM | GI50 [7]: 6.44 nM | TGI [7]: > 50000 nM | GI50 [8]: < 5 nM | TGI [8]: 134 nM | GI50 [9]: 8.04 nM | TGI [9]: > 50000 nM | GI50 [10]: < 5 nM | TGI [10]: > 50000 nM | GI50 [11]: < 5 nM | TGI [11]: 496 nM | GI50 [12]: < 5 nM | TGI [12]: > 50000 nM | GI50 [13]: < 5 nM | TGI [13]: > 50000 nM | GI50 [14]: < 5 nM | TGI [14]: > 50000 nM | GI50 [15]: < 5 nM | TGI [15]: > 50000 nM | GI50 [16]: < 5 nM | TGI [16]: > 50000 nM | GI50 [17]: 9.94 nM | TGI [17]: > 50000 nM | GI50 [18]: < 5 nM | GI50 [19]: < 5 nM | TGI [19]: < 5 nM | GI50 [20]: < 5 nM | TGI [20]: > 50000 nM | GI50 [21]: 6.09 nM | TGI [21]: > 50000 nM | GI50 [22]: 7.52 nM | TGI [22]: > 50000 nM | GI50 [23]: < 5 nM | TGI [23]: > 50000 nM | GI50 [24]: < 5 nM | TGI [24]: > 50000 nM | GI50 [25]: < 5 nM | TGI [25]: > 50000 nM | GI50 [26]: < 5 nM | TGI [26]: 21600 nM | GI50 [27]: 6.81 nM | TGI [27]: 1610 nM | GI50 [28]: 6.24 nM | TGI [28]: > 50000 nM | GI50 [29]: 9.51 nM | TGI [29]: > 50000 nM | GI50 [30]: 3470 nM | TGI [30]: > 50000 nM | GI50 [31]: < 5 nM | TGI [31]: > 50000 nM | GI50 [32]: 21.8 nM | TGI [32]: > 50000 nM | GI50 [33]: < 5 nM | TGI [33]: 49600 nM | GI50 [34]: < 5 nM | TGI [34]: 62.8 nM | GI50 [35]: 38 nM | TGI [35]: > 50000 nM | GI50 [36]: < 5 nM | TGI [36]: 42.6 nM | GI50 [37]: < 5 nM | TGI [37]: 5780 nM | GI50 [38]: < 5 nM | TGI [38]: > 50000 nM | GI50 [39]: > 17100 nM | TGI [39]: > 50000 nM | GI50 [40]: 16.4 nM | TGI [40]: > 32000 nM | GI50 [41]: < 5 nM | TGI [41]: 67.4 nM | GI50 [42]: < 5 nM | TGI [42]: > 30800 nM | GI50 [43]: < 5 nM | TGI [43]: < 5 nM | GI50 [44]: < 5 nM | TGI [44]: > 50000 nM | GI50 [45]: < 5 nM | TGI [45]: > 50000 nM | GI50 [46]: < 5 nM | TGI [46]: > 50000 nM | GI50 [47]: < 5 nM | TGI [47]: > 50000 nM | GI50 [48]: 24.4 nM | TGI [48]: 34800 nM | GI50 [49]: < 5 nM | TGI [49]: > 50000 nM | GI50 [50]: < 5 nM | TGI [50]: > 22900 nM | GI50 [51]: 9.54 nM | TGI [51]: > 50000 nM | GI50 [52]: < 5 nM | TGI [52]: > 50000 nM | GI50 [53]: 7.62 nM | TGI [53]: > 50000 nM | GI50 [54]: < 5 nM | TGI [54]: 25.7 nM | GI50 [55]: < 5 nM | TGI [55]: < 5 nM

COc1cc(/C=C2\CCc3ccccc3C2=O)ccc1O
TGI [1]: > 100000 nM | TGI [2]: 37100 nM | TGI [3]: 27300 nM | TGI [5]: 27400 nM | TGI [6]: 31700 nM | TGI [7]: 25000 nM | TGI [8]: 37700 nM | TGI [9]: 52300 nM | TGI [12]: 30200 nM | TGI [13]: 58100 nM | TGI [15]: 48000 nM | TGI [16]: 49700 nM | TGI [17]: 27200 nM | TGI [19]: 33500 nM | TGI [20]: 91500 nM | TGI [21]: 33700 nM | TGI [22]: 53200 nM | TGI [23]: 79100 nM | TGI [24]: 69100 nM | TGI [25]: 30800 nM | TGI [26]: 50200 nM | TGI [28]: 75700 nM | TGI [29]: 59000 nM | TGI [30]: 38800 nM | TGI [32]: 44800 nM | TGI [33]: 45200 nM | TGI [34]: 35300 nM | TGI [38]: 23200 nM | TGI [39]: 37800 nM | TGI [40]: > 100000 nM | TGI [41]: 30400 nM | TGI [42]: 34400 nM | TGI [56]: > 100000 nM | TGI [43]: 30100 nM | TGI [44]: 79700 nM | TGI [45]: 32700 nM | TGI [47]: 36100 nM | TGI [48]: 78800 nM | TGI [49]: 33900 nM | TGI [50]: 32800 nM | TGI [51]: 74100 nM | TGI [53]: > 100000 nM

CC(C)Cc1ccc(C(C)C(=O)NCc2ccc(Cn3c(=O)sn(CCCCl)c3=O)cc2)cc1 (stereo unspecified)
GI50 [1]: 361 nM | TGI [1]: > 100000 nM | GI50 [2]: 1210 nM | TGI [2]: 2870 nM | GI50 [3]: 551 nM | TGI [3]: 1980 nM | GI50 [4]: 1560 nM | TGI [4]: 2980 nM | GI50 [5]: 672 nM | TGI [5]: 2080 nM | GI50 [6]: 1630 nM | TGI [6]: 3010 nM | GI50 [7]: 1170 nM | TGI [7]: 2410 nM | GI50 [8]: 1090 nM | TGI [8]: 2700 nM | GI50 [9]: 1590 nM | TGI [9]: 3260 nM | GI50 [10]: 1420 nM | TGI [10]: 2760 nM | GI50 [11]: 1260 nM | TGI [11]: 2870 nM | GI50 [12]: 1710 nM | TGI [12]: 3300 nM | GI50 [13]: 746 nM | TGI [13]: 2020 nM | GI50 [14]: 1430 nM | TGI [14]: 3000 nM | GI50 [16]: 1340 nM | TGI [16]: 2650 nM | GI50 [17]: 1750 nM | TGI [17]: 3290 nM | GI50 [18]: 4900 nM | TGI [18]: 17500 nM | GI50 [19]: 621 nM | TGI [19]: 2200 nM | GI50 [20]: 6130 nM | TGI [20]: 20000 nM | GI50 [21]: 1850 nM | TGI [21]: 3370 nM | GI50 [22]: 1790 nM | TGI [22]: 3720 nM | GI50 [23]: 445 nM | TGI [23]: 2040 nM | GI50 [24]: 962 nM | TGI [24]: > 100000 nM | GI50 [25]: 1760 nM | TGI [25]: 3450 nM | GI50 [26]: 375 nM | TGI [26]: 6180 nM | GI50 [27]: 1370 nM | TGI [27]: 2720 nM | GI50 [28]: 511 nM | TGI [28]: 2050 nM | GI50 [29]: 1470 nM | TGI [29]: 2780 nM | GI50 [30]: 1650 nM | TGI [30]: 3020 nM | GI50 [31]: 677 nM | TGI [31]: 2270 nM | GI50 [32]: 1530 nM | TGI [32]: 3020 nM | GI50 [33]: 814 nM | TGI [33]: 2260 nM | GI50 [34]: 1630 nM | TGI [34]: 2990 nM | GI50 [35]: 1430 nM | TGI [35]: 3130 nM | GI50 [36]: 458 nM | TGI [36]: 2010 nM | GI50 [37]: 235 nM | TGI [37]: 783 nM | GI50 [39]: 493 nM | TGI [39]: 1850 nM | GI50 [40]: 1820 nM | TGI [40]: 4900 nM | GI50 [41]: 1480 nM | TGI [41]: 2810 nM | GI50 [42]: 1650 nM | TGI [42]: 3340 nM | GI50 [56]: 619 nM | TGI [56]: 2080 nM | GI50 [43]: 3820 nM | TGI [43]: > 100000 nM | GI50 [44]: 412 nM | TGI [44]: > 100000 nM | GI50 [45]: 1600 nM | TGI [45]: 2940 nM | GI50 [46]: 1460 nM | TGI [46]: 2820 nM | GI50 [47]: 738 nM | TGI [47]: 2030 nM | GI50 [57]: 1560 nM | TGI [57]: 2970 nM | GI50 [48]: 2110 nM | TGI [48]: 8250 nM | GI50 [49]: 497 nM | TGI [49]: 1900 nM | GI50 [50]: 1180 nM | TGI [50]: 2520 nM | GI50 [51]: 1600 nM | TGI [51]: 3020 nM | GI50 [52]: 1280 nM | TGI [52]: 2730 nM | GI50 [53]: 744 nM | TGI [53]: 2210 nM | GI50 [54]: 1120 nM | TGI [54]: 2760 nM | GI50 [55]: 1140 nM | TGI [55]: 2440 nM
